From patent publication US7767659B2, “Synthesis of naturally occurring ecteinascidins and related compounds” (Pharma Mar, S.A., priority 2002, dated 2010)
Like-named read-outs stand apart in the source and are kept apart here.

Legend:
A-549 = experiment: cells; details: Homo sapiens, A549, 48 h
Method: (§1) This form of the assay employs 96 well cell culture microplates of 9 mm diameter (Faircloth, 1988; Mosmann, 1983). Most of the cell lines are obtained from American Type Culture Collection (ATCC) derived from different human cancer types.
(§2) Cells are maintained in RPMI 1640 10% FBS, supplemented with 0.1 g/l penicillin and 0.1 g/l streptomycin sulfate and then incubated at 37° C., 5% CO2 and 98% humidity. For the experiments, cells were harvested from subconfluent cultures using trypsin and resuspended in fresh medium before plating.
(§3) Cells are seeded in 96 well microtiter plates, at 5×10^3 cells per well in aliquots of 195 μl medium, and they are allowed to attach to the plate surface by growing in drug free medium for 18 hours. Afterward, samples are added in aliquots of 5 μl in a ranging from 10 to 10^−8 μg/ml, dissolved in DMSO/EtOH/PBS (0.5:0.5:99). After 48 hours exposure, the antitumor effect are measured by the SRB methodology: cells are fixed by adding 50 μl of cold 50% (wt/vol) trichloroacetic acid (TCA) and incubating for 60 minutes at 4° C. Plates are washed with deionized water and dried. One hundred μl of SRB solution (0.4% wt/vol in 1% acetic acid) is added to each microtiter well and incubated for 10 minutes at room temperature. Unbound SRB is removed by washing with 1% acetic acid. Plates are air dried and bound stain is solubilzed with Tris buffer. Optical densities are read on a automated spectrophotometric plate reader at a single wavelength of 490 nm.
(§4) The values for mean +/− SD of data from triplicate wells are calculated. Some parameters for cellular responses can be calculated: GI=growth inhibition, TGI=total growth inhibition (cytostatic effect) and LC=cell killing (cytotoxic effect).

HT-29 = experiment: cells; details: Homo sapiens, HT-29, 48 h
Method: as §1, §2, §3, §4

K-562 = experiment: Inhibition of cells growth by colorimetric assay (SRB); details: Homo sapiens, K562, 48 h, read-out: GI50 K562
Method: as §1, §2, §3, §4

LNCaP = experiment: as above; details: Homo sapiens, LNCaP, 48 h, read-out: GI50 LNCAP
Method: as §1, §2, §3, §4

Row | SMILES | GI50 (A-549; read-out: GI50 A549) [µM] | CC50 (A-549; read-out: LC50 A549) [µM] | IC (TGI) (A-549; read-out: TGI A549) [µM] | GI50 (HT-29; read-out: GI50 HT29) [µM] | CC50 (HT-29; read-out: LC50 HT29) [µM] | IC (TGI) (HT-29; read-out: TGI HT29) [µM] | GI50 (A-549; read-out: A549 GI50) [µM] | CC50 (A-549; read-out: A549 LC50) [µM] | IC (TGI) (A-549; read-out: A549 TGI) [µM] | GI50 (HT-29; read-out: HT29 GI50) [µM] | CC50 (HT-29; read-out: HT29 LC50) [µM] | IC (TGI) (HT-29; read-out: HT29 TGI) [µM] | GI50 (K-562) [µM] | GI50 (LNCaP) [µM]
1 | C=CCOc1c(C)c2c(c3c1CC1[C@H]4c5c(cc(C)c(OC)c5OCOCCOC)C[C@@H]([C@H](C#N)N1[C@H]3CO[Si](c1ccccc1)(c1ccccc1)C(C)(C)C)N4C)OCO2 (some centres unmarked) [compound 4] | 2.36 | 11.8 | 8.27 | 0.591 | 11.8 | 1.18 | – | – | – | – | – | – | – | –
2 | COc1c(C)cc2c(c1O)[C@@H]1C3[C@@H]4SCC(N)C(=O)OC[C@@H](c5c6c(c(C)c(OC(C)=O)c54)OCO6)N3[C@@H](C#N)C(C2)N1C (some centres unmarked) [compound 18] | 0.161 | 8.04 | 0.643 | 0.0804 | 80.4 | 0.643 | – | – | – | – | – | – | – | –
3 | C=CCOc1c(C)c2c(c3c1CC1[C@H]4c5c(cc(C)c(OC)c5OCOCCOC)C[C@@H]([C@H](C#N)N1[C@H]3CNC(=O)[C@H](CSCC1c3ccccc3-c3ccccc31)NC(=O)OC(C)(C)C)N4C)OCO2 (some centres unmarked) [compound 70] | – | – | – | – | – | – | 5.06 | 50.6 | 50.6 | 10.1 | 50.6 | 10.1 | – | –
4 | COCCOCOc1c(OC)c(C)cc2c1[C@H]1N[C@@H](C2)[C@H](C#N)N2C1Cc1c(O)c(C)c3c(c1[C@@H]2CO[Si](c1ccccc1)(c1ccccc1)C(C)(C)C)OCO3 (some centres unmarked) [compound 6] | 6.65 | 12.6 | 12.6 | 12.5 | 12.6 | 12.6 | – | – | – | – | – | – | – | –
5 | C=CCN1[C@@H]2c3c(cc(C)c(OC)c3OCOCCOC)C[C@H]1[C@H](C#N)N1C2CC2(O)C(=O)C(C)=C3OCOC3=C2[C@@H]1CO (some centres unmarked) [compound 9] | 16.4 | 16.4 | 16.4 | 16.4 | 16.4 | 16.4 | – | – | – | – | – | – | – | –
6 | C=CCN1[C@@H]2c3c(cc(C)c(OC)c3OCOCCOC)C[C@H]1[C@H](C#N)N1C2[C@@H]2SC[C@@H](NC(=O)OC(C)(C)C)C(=O)OC[C@H]1c1c3c(c(C)c(OC(C)=O)c12)OCO3 (some centres unmarked) [compound 11] | – | – | – | – | – | – | – | – | – | – | – | – | 4.76 | 5.84
7 | C=CCN1[C@@H]2c3c(cc(C)c(OC)c3OCOCCOC)C[C@H]1[C@H](C#N)N1C2CC2(O)C(=O)C(C)=C3OCOC3=C2[C@@H]1CO[Si](c1ccccc1)(c1ccccc1)C(C)(C)C (some centres unmarked) [compound 8] | 11.8 | 11.8 | 11.8 | 7.82 | 11.8 | 11.8 | – | – | – | – | – | – | – | –
